ChEMBL document CHEMBL1201862, “PubChem BioAssay data set” (2004)
Active and inactive are the calls of the source.

What was measured:
[1] = molecular target: Endoplasmic reticulum aminopeptidase 1 (Homo sapiens, UniProt Q9NZ08); test: inhibition of human ERAP1 enzyme activity – biochemical, cherry-pick, set 2, plate reader, dose response (AID 743314)
Aminopeptidase N = molecular target: T1, Aminopeptidase N (Plasmodium falciparum FcB1/Columbia, UniProt O96935); test: malaria alanyl aminopeptidase activity blockers – biochemical, fluorogenic H-Leu-NHMec substrate, 1536-well (AID 1445); set-up: species or system Plasmodium falciparum 3D7, 3D7
T1 sequence (O96935 whole entry): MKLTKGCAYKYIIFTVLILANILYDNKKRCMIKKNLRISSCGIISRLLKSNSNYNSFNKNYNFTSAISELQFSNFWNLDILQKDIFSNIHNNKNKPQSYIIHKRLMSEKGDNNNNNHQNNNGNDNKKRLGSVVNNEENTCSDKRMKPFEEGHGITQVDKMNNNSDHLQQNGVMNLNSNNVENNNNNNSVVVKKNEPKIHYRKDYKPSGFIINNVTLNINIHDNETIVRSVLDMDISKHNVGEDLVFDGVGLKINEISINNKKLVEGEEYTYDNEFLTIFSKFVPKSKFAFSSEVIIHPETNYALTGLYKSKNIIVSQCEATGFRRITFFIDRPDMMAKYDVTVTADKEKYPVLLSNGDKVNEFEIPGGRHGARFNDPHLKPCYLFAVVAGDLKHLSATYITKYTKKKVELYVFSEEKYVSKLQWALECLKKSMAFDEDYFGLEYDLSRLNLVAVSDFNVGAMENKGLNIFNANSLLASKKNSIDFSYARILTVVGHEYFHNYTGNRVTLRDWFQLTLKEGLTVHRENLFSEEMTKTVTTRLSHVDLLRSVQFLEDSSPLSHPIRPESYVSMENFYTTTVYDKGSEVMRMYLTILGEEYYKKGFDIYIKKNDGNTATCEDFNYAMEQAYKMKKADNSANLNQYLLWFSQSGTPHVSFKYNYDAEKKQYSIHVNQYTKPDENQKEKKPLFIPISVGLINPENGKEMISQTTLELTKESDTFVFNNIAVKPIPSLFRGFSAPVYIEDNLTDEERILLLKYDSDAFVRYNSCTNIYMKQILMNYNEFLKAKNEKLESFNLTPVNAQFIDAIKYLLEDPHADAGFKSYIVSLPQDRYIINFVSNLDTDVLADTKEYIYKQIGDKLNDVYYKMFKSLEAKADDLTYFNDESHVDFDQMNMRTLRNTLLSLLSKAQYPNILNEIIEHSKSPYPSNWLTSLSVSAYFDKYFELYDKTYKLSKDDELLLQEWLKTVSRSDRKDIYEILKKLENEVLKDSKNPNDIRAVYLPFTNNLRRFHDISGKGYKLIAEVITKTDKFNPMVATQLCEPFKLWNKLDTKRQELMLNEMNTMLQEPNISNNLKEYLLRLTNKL

[2] = HGIII-sPLA2 enzyme inhibition potency – biochemical, QFRET, IC50, dose response (AID 743457);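 also: green fluorescence rise as the enzyme cleaves BODIPY PC-A2 in liposomes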
Leucine aminopeptidase = molecular target: T2, Leucine aminopeptidase (Plasmodium falciparum 3D7, UniProt Q8IL11); test: P. falciparum M17LAP inhibitors, primary screen, biochemical, fluorogenic H-Leu-NHMec substrate, 1536-well (AID 1619); assay type: functional
T2 sequence (Q8IL11 whole entry): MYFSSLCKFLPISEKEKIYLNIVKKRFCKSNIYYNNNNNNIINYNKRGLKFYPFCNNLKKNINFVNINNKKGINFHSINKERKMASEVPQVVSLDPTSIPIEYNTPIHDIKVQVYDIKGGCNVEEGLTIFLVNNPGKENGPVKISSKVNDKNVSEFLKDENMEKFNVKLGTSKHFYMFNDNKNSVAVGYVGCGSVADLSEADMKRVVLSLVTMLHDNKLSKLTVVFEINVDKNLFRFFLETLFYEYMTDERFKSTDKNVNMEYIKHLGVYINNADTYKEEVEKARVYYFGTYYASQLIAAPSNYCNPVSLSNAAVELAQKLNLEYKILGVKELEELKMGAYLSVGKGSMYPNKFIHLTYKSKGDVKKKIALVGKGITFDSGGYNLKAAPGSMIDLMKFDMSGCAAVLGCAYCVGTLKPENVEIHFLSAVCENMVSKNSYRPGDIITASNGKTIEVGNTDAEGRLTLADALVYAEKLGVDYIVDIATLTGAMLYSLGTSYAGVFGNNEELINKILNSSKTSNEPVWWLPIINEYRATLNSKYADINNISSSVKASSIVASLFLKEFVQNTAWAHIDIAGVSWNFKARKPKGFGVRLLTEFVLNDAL

[3] = molecular target: T3, Heat shock factor protein 1 (Mus musculus, UniProt P38532); test: decrease of HSF1-responsive luciferase luminescence – cell-based, NIH3T3, dose retest, confirmation (AID 2382); assay type: functional;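 also: NIH3T3 fibroblasts with HSF1-driven luciferase reporter stressed by proteasome inhibitor MG132; luminescence from HSF1-driven luciferase expression after 8 hours of MG132 stress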
T3 sequence (P38532 whole entry): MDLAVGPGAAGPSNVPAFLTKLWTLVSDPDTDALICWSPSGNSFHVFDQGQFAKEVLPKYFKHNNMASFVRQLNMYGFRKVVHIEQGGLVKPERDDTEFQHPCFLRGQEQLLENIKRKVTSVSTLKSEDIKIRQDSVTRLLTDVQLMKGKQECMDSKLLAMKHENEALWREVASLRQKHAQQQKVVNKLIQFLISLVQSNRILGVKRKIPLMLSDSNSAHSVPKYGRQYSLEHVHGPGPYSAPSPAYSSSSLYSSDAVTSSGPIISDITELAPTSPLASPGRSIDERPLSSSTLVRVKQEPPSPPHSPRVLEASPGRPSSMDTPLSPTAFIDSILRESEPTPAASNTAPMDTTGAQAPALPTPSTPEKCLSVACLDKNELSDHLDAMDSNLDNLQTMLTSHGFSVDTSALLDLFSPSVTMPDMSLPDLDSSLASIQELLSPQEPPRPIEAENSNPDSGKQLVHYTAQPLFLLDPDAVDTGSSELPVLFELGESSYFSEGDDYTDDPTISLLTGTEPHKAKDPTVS

Albumin = Albumin (Bos taurus, UniProt P02769); test: Counterscreen for inhibitors of T-cell receptor (TCR)-CD3 interaction: Fluorescence-based biochemical high throughput dose response assay to identify inhibitors of T-cell receptor (TCR)-CD3 interaction using a TAMRA-labeled BSA probe.; assay type: functional
Major prion protein = Major prion protein (Homo sapiens, UniProt P04156); assay type: functional, cell-based
[4] = IGROV1 cell killing – plate reader, dry powder samples, PAX8 inhibitor project, dose response (AID 743043); assay type: functional, cell-based; conditions: IGROV-1
[5] = OVCAR-3 cell viability loss – plate reader, dry powder samples, PAX8 inhibitor project, dose response (AID 743044); assay type: functional, cell-based
Paired box protein Pax-8 = Paired box protein Pax-8 (Homo sapiens, UniProt Q06710); test: PAX8 transcriptional activity inhibition in RMG-I – RMG-I cells, luciferase, cherry-pick, dose response (AID 687027); assay type: functional, cell-based;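 also: luciferase reporter driven by Pax8 target thyroperoxidase promoter measured by SteadyGlo luminescence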
[6] = OVCAR8 cell viability loss – plate reader, dry powder samples, PAX8 project, dose response (AID 743197); assay type: functional, cell-based; conditions: OVCAR-8

With `CCCc1cc(=O)oc2c(CN(CC)CC)c(O)c(Cl)cc12` the AC50 [1] was 7.13 µM (active) and the IC50 (Aminopeptidase N) was 37 µM (active).
For `Cc1cc(C(=O)NN=C(S)NC2CCCCC2)cs1`, the IC50 [2] was > 122 µM (inactive).
For `CCn1c(S)nnc1-c1cccn(Cc2ccc(Cl)cc2Cl)c1=O`, the IC50 [2] was > 122 µM (inactive).
For `CC/C(NNC(=O)c1ccccc1O)=C1/C(=O)NC(=O)N(Cc2ccccc2)C1=O`, the IC50 (Leucine aminopeptidase) was 47.3 µM (active), the IC50 (Aminopeptidase N) was 7.8 µM (active) and the EC50 [3] was 30.2 µM (active). The IC50 (Albumin) was > 94.1 µM (inactive).
With `CCCCOc1ccc(C(=O)C2=C(O)C(=O)N(Cc3cccnc3)C2c2ccncc2)c(C)c1` (configuration not stated) the IC50 (cells) was > 138 µM (inactive) and the IC50 (Major prion protein) was 4.21 µM (active).
With `Cc1nc(SCC(=O)NNC(=O)c2ccc(F)cc2)c2ccccc2n1` the IC50 (cells) was > 138 µM (inactive) and the IC50 (Major prion protein) was 2.26 µM (active).
With `O=c1ccc2cc(O[C@@H]3O[C@H](CO)[C@@H](O)[C@H](O)[C@H]3O)c(O)cc2o1` the AC50 [1] was 1.72 µM (active).
In the case of `COc1cccc(-c2ccc3c(c2)[C@H]2[C@H](CCN2S(=O)(=O)c2ccccc2F)[C@@H](CO)N3)c1`, the AC50 [4] is reported as 31.4 µM (active), the AC50 [5] is reported as 19.1 µM (active) and the AC50 (Paired box protein Pax-8) is reported as 3.92 µM (active). For the same compound, the AC50 [6] was 21.9 µM (active).
